# Data taken from paper PMC10254233, “Synthesis and In Vitro Biological Evaluation of p-Carborane-Based Di-tert-butylphenol Analogs” (Molecules, 2023).
# What was measured:
# [1] = physchem; settings: pH 7.4
# [2] = system: HCT116 colorectal carcinoma; test: Cell viability, crystal violet (CV) assay, HCT116; assay type: cell-based; settings: Homo sapiens, HCT-116; 72 h, mean ± SD
# Description: (§1) Five human cell lines (A375 melanoma, A549 lung adenocarcinoma, HCT116 and HT29 colorectal carcinoma, MDA-MB-231 triple-negative breast adenocarcinoma) were used to study the antitumor effects of the di-tert-butylphenols and their respective carborane analogs. All selected cell lines were derived from inflammation-associated tumors.
# (§2) After the incubation period, the supernatant was discarded from the wells, and the cells were washed two times with 200 µL of PBS. Next, MTT solution at a final concentration of 0.5 mg/mL was added and incubated at 37 °C until purple formazan crystals were formed (30 min to one hour). After incubation, the dye was discarded. In order to dissolve the formed formazan crystals DMSO was added, and the absorbance was measured at λmax = 540 nm, with the reference/background wavelength of 670 nm. All results are expressed as a percentage of the control value which was arbitrary set to 100%. After 72 h treatment, cells were washed with 200 µL of PBS and fixed with 4% paraformaldehyde (PFA) for 15 min at room temperature (RT). Next, cells were stained with 1% CV solution. After 20 min, cells were washed in tap water and dried on air. Dye was dissolved in 33% acetic acid and the absorbance was measured at λmax = 540 nm, with the reference/background wavelength of 670 nm. Results were expressed as a percentage of the control value which was arbitrary set to 100%.
# (§3) 1. General methods, materials, and procedures
# (§4) 1.1.1. Reagents and cells
# (§5) Reagents and cells were obtained from following manufacturers: Capricorn Scientific GmbH (Hessen, Germany) – Culture medium RPMI-1640, Dulbecco's Modified Eagle Medium (DMEM), and fetal bovine serum (FBS). Serva (Heidelberg, Germany) – Paraformaldehyde (PFA). Sigma (St. Louis, MO, USA) – Ethylenediaminetetraacetic acid (EDTA), Dimethyl sulfoxide (DMSO), chloroquine, CV, Triton X-100, RNase, PI, PBS, 3-MA, CFSE, and fluorescent mounting medium. AppliChem (MO, USA) –MTT. Thermo Fisher Scientific (Waltham, MA, USA) – DHR. R&D Systems (Minneapolis, MN, USA) – ApoStat. BD (Pharmingen, San Diego, SAD) – Annexin V-FITC (AnnV). Biological Industries (Cromwell, CT, USA) – Penicillin Streptomycin solution. […]
# (§6) Afterwards, cells were washed with phosphate-buffered saline (PBS) and stained with AnnV (15 μg/mL) and PI (15 μg/mL). After 15 min incubation at room temperature (RT) protected from light the cells were resuspended in AnnV-binding buffer and analysed using flow cytom-etry. HCT116 cells were incubated with pan-caspase inhibitor Apostat for 30 min at 37 °C to determine whether detected apoptosis was mediated by caspase activation. Afterwards, cells were washed with PBS and analyzed using flow cytometry. […] Afterwards cells were washed with PBS, resuspended and analyzed by flow cytometry (CyFlow® Space Partec using the PartecFloMax® software
# [3] = system: MDA-MB-231 triple-negative breast adenocarcinoma; test: Cell viability, MTT assay, MDA-MB-231; assay type: cell-based, human; settings: Homo sapiens, MDA-MB-231; 72 h, mean ± SD
# Description: as §1, §2, §3, §4
# (§7) Reagents and cells were obtained from following manufacturers: Capricorn Scientific GmbH (Hessen, Germany) – Culture medium RPMI-1640, Dulbecco's Modified Eagle Medium (DMEM), and fetal bovine serum (FBS). Serva (Heidelberg, Germany) – Paraformaldehyde (PFA). Sigma (St. Louis, MO, USA) – Ethylenediaminetetraacetic acid (EDTA), Dimethyl sulfoxide (DMSO), chloroquine, CV, Triton X-100, RNase, PI, PBS, 3-MA, CFSE, and fluorescent mounting medium. AppliChem (MO, USA) –MTT. Thermo Fisher Scientific (Waltham, MA, USA) – DHR. R&D Systems (Minneapolis, MN, USA) – ApoStat. BD (Pharmingen, San Diego, SAD) – Annexin V-FITC (AnnV). Biological Industries (Cromwell, CT, USA) – Penicillin Streptomycin solution. American Type Culture Collection (ATCC, Manassas, Virginia, USA) – Human lung carcinoma (A549), human breast adenocarcinoma (MDA-MB-231), human colorectal ade-nocarcinoma (HT-29), human colorectal carcinoma (HCT116) and human melanoma (A375).
# (§8) Cell lines (A375, HCT116, HT-29 and MDA-MB-231) were cultivated in HEPES-buffered RPMI-1640 medium while A549 cell line was cultivated in Dulbecco's Modified Eagle Medium (DMEM) which were previously supplemented with 10% heat-inactivated FBS, penicillin (100 units/mL), and streptomycin (100 μg/mL). All cells were kept at 37 °C in a humidified atmosphere with 5% CO2. For viability determi-nation cells were seeded at following densities in 96-well plates: 4 x 10^3 cells/well (A375, HT-29 and MDA-MB-231), 5 x 10^3 cells/well (HCT116), and 3 x 10^3 cells/well (A549). […]
# (§9) Afterwards, cells were washed with phosphate-buffered saline (PBS) and stained with AnnV (15 μg/mL) and PI (15 μg/mL). After 15 min incubation at room temperature (RT) protected from light the cells were resuspended in AnnV-binding buffer and analysed using flow cytom-etry. HCT116 cells were incubated with pan-caspase inhibitor Apostat for 30 min at 37 °C to determine whether detected apoptosis was mediated by caspase activation. Afterwards, cells were washed with PBS and analyzed using flow cytometry. HCT116 cells were stained with 1 µg/mL of AO solution for 15 min at 37 °C to detect the presence of autophagic cell death. Afterwards cells were washed with PBS, resuspended and analyzed by flow cytometry (CyFlow® Space Partec using the PartecFloMax® software
# [4] = system: HT-29 colorectal carcinoma; test: Cell viability, crystal violet (CV) assay, HT-29; assay type: cell-based; settings: Homo sapiens, 72 h, mean ± SD
# Description: as §1, §2, §3, §4, §5, §6
# [5] = system: A375 melanoma; test: Cell viability, crystal violet (CV) assay, A375; assay type: cell-based; settings: Homo sapiens, A-375; 72 h, mean ± SD
# Description: as §1, §2, §3, §4, §5, §6
# [6] = system: A375 melanoma; test: Cell viability, MTT assay, A375; assay type: cell-based, human; settings: Homo sapiens, A-375; 72 h, mean ± SD
# Description: as §1, §2, §3, §4, §7, §8
# (§10) Afterwards, cells were washed with phosphate-buffered saline (PBS) and stained with AnnV (15 μg/mL) and PI (15 μg/mL). […]
# (§11) PBS and analyzed using flow cytometry. HCT116 cells were stained with 1 µg/mL of AO solution for 15 min at 37 °C to detect the presence of autophagic cell death. Afterwards cells were washed with PBS, resuspended and analyzed by flow cytometry (CyFlow® Space Partec using the PartecFloMax® software
# [7] = system: A549 lung adenocarcinoma; test: Cell viability, crystal violet (CV) assay, A549; assay type: cell-based; settings: Homo sapiens, 72 h, mean ± SD
# Description: as §1, §2, §3, §4, §5, §6
# [8] = system: HCT116 colorectal carcinoma; test: Cell viability, MTT assay, HCT116; assay type: cell-based, human; settings: Homo sapiens, HCT-116; 72 h, mean ± SD
# Description: as §1, §2, §3, §4, §7, §8, §10, §11
# [9] = system: HT-29 colorectal carcinoma; test: Cell viability, MTT assay, HT-29; assay type: cell-based, human; settings: Homo sapiens, HT-29; 72 h, mean ± SD
# Description: as §1, §2, §3, §4, §7, §8, §9
# [10] = system: MDA-MB-231 triple-negative breast adenocarcinoma; test: Cell viability, crystal violet (CV) assay, MDA-MB-231; assay type: cell-based; settings: Homo sapiens, 72 h, mean ± SD
# Description: as §1, §2, §3, §4, §5, §6
# [11] = system: A549 lung adenocarcinoma; test: Cell viability, MTT assay, A549; assay type: cell-based, human; settings: Homo sapiens, A549; 72 h, mean ± SD
# Description: as §1, §2, §3, §4, §7, §8, §9
# [12] = molecular target: T1, 5-LO (Homo sapiens, UniProt P09917); test: 5-LO product formation in intact PMNL; settings: PMNL, read-out: inhibition of 5-LO product formation
# T1 sequence (P09917 1-674): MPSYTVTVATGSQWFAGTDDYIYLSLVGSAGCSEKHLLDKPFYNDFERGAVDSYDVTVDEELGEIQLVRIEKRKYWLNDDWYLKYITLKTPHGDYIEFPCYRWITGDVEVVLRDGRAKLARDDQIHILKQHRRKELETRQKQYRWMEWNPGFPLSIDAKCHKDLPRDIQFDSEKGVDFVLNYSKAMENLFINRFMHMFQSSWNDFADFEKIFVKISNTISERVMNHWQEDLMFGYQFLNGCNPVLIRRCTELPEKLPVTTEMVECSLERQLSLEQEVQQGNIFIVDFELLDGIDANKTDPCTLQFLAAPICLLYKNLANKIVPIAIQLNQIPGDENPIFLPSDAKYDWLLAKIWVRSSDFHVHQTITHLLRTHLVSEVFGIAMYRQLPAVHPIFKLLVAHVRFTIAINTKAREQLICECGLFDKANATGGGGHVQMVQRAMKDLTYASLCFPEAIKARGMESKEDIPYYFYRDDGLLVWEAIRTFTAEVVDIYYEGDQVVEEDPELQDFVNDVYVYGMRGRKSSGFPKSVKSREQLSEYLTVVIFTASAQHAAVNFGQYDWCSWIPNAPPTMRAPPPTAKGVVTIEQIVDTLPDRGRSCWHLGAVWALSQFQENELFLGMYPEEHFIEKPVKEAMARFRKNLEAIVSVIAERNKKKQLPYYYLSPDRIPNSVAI
# Description: After 10 min at 37 °C, the reaction was stopped by addition of ice-cold methanol (1 mL). HCl (30 μL, 1 M), prostaglandin B1 (200 ng) and PBS (500 μL) were added and the formed metabolites were extracted and analyzed by HPLC as described previously [96].
# [13] = molecular target: T2, ovine COX-1 (Ovis aries, UniProt P05979); test: COX Fluorescent Inhibitor Screening Assay, COX-1; assay type: biochemical; settings: in duplicate
# T2 construct: purchased Cayman Chemical Company
# T2 sequence (P05979 25-600): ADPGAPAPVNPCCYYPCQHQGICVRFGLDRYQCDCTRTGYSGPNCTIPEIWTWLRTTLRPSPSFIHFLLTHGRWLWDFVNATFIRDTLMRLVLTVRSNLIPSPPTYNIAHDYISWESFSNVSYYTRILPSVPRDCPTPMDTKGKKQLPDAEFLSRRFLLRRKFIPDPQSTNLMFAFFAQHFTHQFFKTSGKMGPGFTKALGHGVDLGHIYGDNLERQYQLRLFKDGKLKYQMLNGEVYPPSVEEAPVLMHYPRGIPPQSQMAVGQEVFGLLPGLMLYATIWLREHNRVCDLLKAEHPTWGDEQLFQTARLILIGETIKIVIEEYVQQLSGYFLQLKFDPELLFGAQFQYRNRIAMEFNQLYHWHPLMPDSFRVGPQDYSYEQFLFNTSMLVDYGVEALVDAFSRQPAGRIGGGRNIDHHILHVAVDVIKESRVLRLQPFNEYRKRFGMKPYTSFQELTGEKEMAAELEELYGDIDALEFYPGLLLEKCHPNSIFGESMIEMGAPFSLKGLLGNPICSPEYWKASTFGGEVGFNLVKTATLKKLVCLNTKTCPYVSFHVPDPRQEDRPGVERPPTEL
# Description: (§12) COX inhibition activity against ovine COX-1 and human COX-2 was determined using the fluorescence-based COX assay COX Fluorescent Inhibitor Screening Assay Kit (Cayman Chemical Company, Ann Arbor, MI, USA) according to the manufacturer’s instructions as previously reported by us. All compounds were screened at a concentration of 100 µM in duplicate.
# [14] = molecular target: T3, human recombinant COX-2 (Homo sapiens, UniProt P35354); test: COX Fluorescent Inhibitor Screening Assay, COX-2; assay type: biochemical; settings: in duplicate
# T3 construct: purchased Cayman Chemical Company
# T3 sequence (P35354 18-604): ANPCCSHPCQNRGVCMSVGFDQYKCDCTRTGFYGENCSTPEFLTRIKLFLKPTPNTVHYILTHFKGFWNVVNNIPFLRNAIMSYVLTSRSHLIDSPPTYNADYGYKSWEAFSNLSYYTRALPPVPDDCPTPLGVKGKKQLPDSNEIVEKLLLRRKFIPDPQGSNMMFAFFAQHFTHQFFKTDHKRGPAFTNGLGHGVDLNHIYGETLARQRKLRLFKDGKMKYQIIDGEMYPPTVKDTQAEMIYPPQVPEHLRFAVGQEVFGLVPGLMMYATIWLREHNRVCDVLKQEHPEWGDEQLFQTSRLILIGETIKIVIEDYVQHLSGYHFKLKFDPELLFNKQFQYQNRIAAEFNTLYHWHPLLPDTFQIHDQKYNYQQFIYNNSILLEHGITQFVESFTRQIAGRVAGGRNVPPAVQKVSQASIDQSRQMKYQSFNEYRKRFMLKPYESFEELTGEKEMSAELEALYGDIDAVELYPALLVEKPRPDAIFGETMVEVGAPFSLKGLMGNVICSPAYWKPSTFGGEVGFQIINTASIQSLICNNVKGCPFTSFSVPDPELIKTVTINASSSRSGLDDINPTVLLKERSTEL
# Description: as §12
SMILES,chromatographic logD [1],IC50 [2] [µM],IC50 [3] [µM],IC50 [4] [µM],IC50 [5] [µM],IC50 [6] [µM],IC50 [7] [µM],IC50 [8] [µM],IC50 [9] [µM],IC50 [10] [µM],IC50 [11] [µM],inhibition at 0.1 µM [12] [%],inhibition at 100 µM [13] [%],inhibition at 100 µM [14] [%]
"CC(C)(C)c1cc(C=C2CCOC2=O)cc(C(C)(C)C)c1O [KME-4, 3-([3,5-bis(1,1-dimethylethyl)-4-hydroxyphenyl]methylene)dihydro-2(3H)-furanone]",3.79,36.2 ± 1.9,80.9 ± 7.3,36.2 ± 1.9,36.4 ± 1.3,13.8 ± 0.6,36.3 ± 2.8,18.4 ± 4.6,18.5 ± 1.5,88.6 ± 2.4,21.9 ± 0.7,,,
"CC(=O)N(O)C/C=C/c1cccc(Oc2ccccc2)c1 [BWA4C, N-[(E)-3-(3-Phenoxyphenyl)prop-2-enyl]acetohydroxamic acid]",,,,,,,,,,,,92.5,,
"CCN1CC/C(=C\c2cc(C(C)(C)C)c(O)c(C(C)(C)C)c2)S1(=O)=O [Compound S-2474, 2,6-Bis(1,1-dimethylethyl)-4-[(E)-(2-ethyl-1,1-dioxido-5-isothiazolidinylidene)methyl]phenol]",3.75,23.7 ± 1.9,34.8 ± 1.7,23.8 ± 1.7,19.2 ± 0.7,13.2 ± 2.7,17.9 ± 1.2,17.5 ± 1,16.1 ± 1.1,43.5 ± 1.8,16.2 ± 1.2,,38,86
